Measured values as given in patent publication US20220306617A1, “SUBSTITUTED 1,3-PHENYL HETEROARYL DERIVATIVES AND THEIR USE IN THE TREATMENT OF DISEASE” (NOVARTIS AG, priority 2019, published 2022).
Where a name gives a salt, the structure may show the parent alone.

Target: T1, abc isoform of human TMEM16A channel expressed in CHO cells (Homo sapiens, UniProt Q5XXA6, DEL476-501)
T1 construct: expressed in transfected cells; host or cells: CHO cells, doxycycline-inducible expression under Blasticidin/Zeocin selection
T1 sequence (Q5XXA6 with tags, fused parts or gaps isoform Q5XXA6-5 DEL539-564): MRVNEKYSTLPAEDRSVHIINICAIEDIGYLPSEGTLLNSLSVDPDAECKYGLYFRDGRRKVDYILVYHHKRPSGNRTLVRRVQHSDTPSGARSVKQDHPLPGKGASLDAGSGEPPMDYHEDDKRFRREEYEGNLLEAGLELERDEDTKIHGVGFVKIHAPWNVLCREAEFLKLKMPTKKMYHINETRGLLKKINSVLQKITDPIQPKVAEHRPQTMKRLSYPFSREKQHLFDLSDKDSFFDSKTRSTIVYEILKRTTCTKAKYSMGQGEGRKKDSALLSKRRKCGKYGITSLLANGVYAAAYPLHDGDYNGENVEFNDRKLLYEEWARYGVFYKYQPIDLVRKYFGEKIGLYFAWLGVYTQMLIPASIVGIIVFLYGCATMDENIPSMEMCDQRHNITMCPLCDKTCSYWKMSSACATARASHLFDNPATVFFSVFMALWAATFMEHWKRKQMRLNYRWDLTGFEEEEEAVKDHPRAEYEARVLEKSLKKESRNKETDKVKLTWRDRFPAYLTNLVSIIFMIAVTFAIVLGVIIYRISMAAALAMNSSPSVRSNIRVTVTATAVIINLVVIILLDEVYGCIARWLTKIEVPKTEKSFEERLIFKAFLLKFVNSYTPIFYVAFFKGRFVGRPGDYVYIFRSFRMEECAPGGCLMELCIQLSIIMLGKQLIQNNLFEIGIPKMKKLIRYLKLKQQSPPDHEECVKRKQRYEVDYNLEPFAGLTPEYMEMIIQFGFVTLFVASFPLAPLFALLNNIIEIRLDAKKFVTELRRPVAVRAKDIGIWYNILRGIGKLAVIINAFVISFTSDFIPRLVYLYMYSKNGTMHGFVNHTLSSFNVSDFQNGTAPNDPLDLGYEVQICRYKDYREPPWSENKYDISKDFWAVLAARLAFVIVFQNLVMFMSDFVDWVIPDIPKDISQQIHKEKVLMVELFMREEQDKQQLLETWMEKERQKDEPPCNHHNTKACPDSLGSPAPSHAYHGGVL
Assay: Automated patch clamping (QPatch) assay to measure TMEM16A activity in whole-cell
Format: cell-based
Conditions: for EC50: CHO cells expressing human TMEM16A (abc), whole-cell automated patch clamp, Hill fit, read-out: TMEM16A QPATCH assay EC50 V3 EC50; for Emax: CHO, read-out: TMEM16A QPATCH assay EC50 V3 Assay Window (% TMEM16A max activation)
Procedure, shortened: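 Whole-cell currents were recorded by planar automated patch clamp from induced CHO cells (doxycycline 1 μg/mL, 18-24 h), using a −70 mV hold, +70 mV step and −90 to +70 mV ramp. Values: Hill-fitted EC50, and activation scaled between vehicle current and reference-potentiator maximum; 0.3% DMSO final.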

[1] = maximum current at highest dose relative to reference potentiator at maximal concentration (upper limit) and vehicle (lower limit)

Row | Structure (SMILES) | EC50 [nM] | Emax [1] [%] | TMEM16A QPATCH assay EC50 V3 Assay Window (% TMEM16A max activation) [1] [%]
1 | CCC(CC)NC(=O)c1cnc(-c2cccc(-c3cc(C(=O)N[C@@H](C)[C@@H]4CCCO4)n[nH]3)c2)o1 (single isomer, unassigned) [3.0 (ii)] | 950 | 79 | –
2 | CCC(CC)NC(=O)c1cc(-c2cccc(-c3ncc(C(=O)NCC4CCCCO4)o3)c2)[nH]n1 (stereo not shown) [Example 1.18, 2-(3-(3-(Pentan-3-Ylcarbamoyl)-1H-Pyrazol-5-Yl)Phenyl)-N-((Tetrahydro-2H-Pyran-2-Yl)Methyl)Oxazole-5-Carboxamide] | 180 | 39 | –
3 | CCOC(=O)[C@@H](NC(=O)c1cnc(-c2cccc(-c3cc(C(=O)N[C@@H](C)C4CC4)n[nH]3)c2)o1)C(C)C [Example 1.0, (S)-Ethyl 2-(2-(3-(3-(((S)-1-Cyclopropylethyl)Carbamoyl)-1H-Pyrazol-5-Yl)Phenyl)Oxazole-5-Carboxamido)-3-Methylbutanoate] | 40 | 79 | –
4 | CCCC(CCC)NC(=O)c1cnc(-c2cccc(-c3cc(C(=O)NC(CC)CC)n[nH]3)c2)o1 [Example 1.35, N-(Heptan-4-Yl)-2-(3-(3-(Pentan-3-Ylcarbamoyl)-1H-Pyrazol-5-yl)Phenyl)Oxazole-5-Carboxamide] | 70 | 90 | –
5 | CCC(CC)NC(=O)c1cc(-c2cccc(-c3ncc(C(=O)Nc4cccc(Cl)c4)o3)c2)[nH]n1 [Example 1.33, N-(3-Chlorophenyl)-2-(3-(3-(Pentan-3-Ylcarbamoyl)-1H-Pyrazol-5-yl)Phenyl)Oxazole-5-Carboxamide] | 720 | 66 | –
6 | CCC(CC)NC(=O)c1cnc(-c2cccc(-c3cc(C(=O)NC(C4CC4)C4CCCO4)n[nH]3)c2)o1 (single isomer, unassigned) [Example 3.4 (iv), 2-(3-(3-((Cyclopropyl(Tetrahydrofuran-2-Yl)Methyl)Carbamoyl)-1H-Pyrazol-5-Yl)Phenyl)-N-(Pentan-3-Yl)Oxazole-5-Carboxamide] | 380 | – | 73
7 | COC(=O)[C@@H](NC(=O)c1cnc(-c2cccc(-c3cc(C(=O)N[C@@H](C)C4CC4)n(CC(O)C(F)(F)F)n3)c2)o1)C(C)C (single isomer, unassigned) [8.1 (i)] | 10 | 135 | –
8 | CCC(CC)NC(=O)c1cc(-c2cccc(-c3ncc(C(=O)N[C@@H](C)C(=O)OCc4ccccc4)o3)c2)[nH]n1 [Example 1.41, (S)-Benzyl 2-(2-(3-(3-(Pentan-3-Ylcarbamoyl)-1H-Pyrazol-5-yl)Phenyl)Oxazole-5-Carboxamido)Propanoate] | 950 | 75 | –
9 | CCOC(=O)[C@@H](NC(=O)c1cnc(-c2cccc(-c3cc(C(=O)N[C@@H](C(=O)OC)C(C)C)[nH]n3)c2)o1)C(C)C [Example 2.0, (S)-Ethyl 2-(2-(3-(5-(((R)-1-Methoxy-3-Methyl-1-Oxobutan-2-Yl)Carbamoyl)-1 H-Pyrazol-3-Yl)Phenyl)Oxazole-5-Carboxamido)-3-Methylbutanoate] | 140 | 87 | –

More lines, now with the values ahead:

Row | EC50 [nM] | Emax [1] [%] | TMEM16A QPATCH assay EC50 V3 Assay Window (% TMEM16A max activation) [1] [%] | Structure (SMILES)
10 | 90 | 167 | – | COC(=O)[C@@H](NC(=O)c1cnc(-c2cccc(-c3cc(C(=O)NC(C4CC4)C4CC4)n(CCO)n3)c2)o1)C(C)C [Example 4.3, (S)-Methyl 2-(2-(3-(5-((Dicyclopropylmethyl)Carbamoyl)-1-(2-Hydroxyethyl)-1H-Pyrazol-3-Yl)Phenyl)Oxazole-5-Carboxamido)-3-Methylbutanoate]
11 | 440 | 88 | – | CCOC(=O)CCCCCn1nc(-c2cccc(-c3ncc(C(=O)NC(CC)CC)o3)c2)nc1C(=O)NC(CC)CC [Example 15.11]
12 | 290 | 99 | – | COC(=O)[C@H](CC(C)C)NC(=O)c1cnc(-c2cccc(-c3nnc(C(=O)N[C@@H](C)C4CC4)[nH]3)c2)o1 [Example 12.13]
13 | 780 | 28 | – | CCC(CC)NC(=O)c1cnc(-c2cccc(-c3cc(C(=O)N[C@@H](C(=O)OC)c4ccccc4)n[nH]3)c2)o1 [Example 3.65, (R)-Methyl 2-(5-(3-(5-(Pentan-3-Ylcarbamoyl)Oxazol-2-Yl)Phenyl)-1H-Pyrazole-3-Carboxamido)-2-Phenylacetate Trifluoroacetate]
14 | 260 | 76 | – | CCC(CC)NC(=O)c1cc(-c2cccc(-c3ncc(C(=O)NC(C)(C)C(=O)OC(C)(C)C)o3)c2)[nH]n1 [Example 3.69, Tert-Butyl 2-Methyl-2-(2-(3-(3-(Pentan-3-Ylcarbamoyl)-1H-Pyrazol-5-Yl)Phenyl)Oxazole-5-Carboxamido)Propanoatehexafluorophosphatepropanoate Hexafluorophosphate]
15 | 110 | 88 | – | C[C@@H](NC(=O)c1nnc(-c2cccc(-c3ncc(C(=O)NC(C4CC4)C4CC4)o3)c2)[nH]1)C1CC1 [Example 13.1, (R)-2-(3-(5-((1-Cyclopropylethyl)Carbamoyl)-4H-1,2,4-Triazol-3-Yl)Phenyl)-N-(Dicyclopropylmethyl)Oxazole-5-Carboxamide]
16 | 420 | 85 | – | C[C@H](NC(=O)c1nnc(-c2cccc(-c3ncc(C(=O)NC45CC6CC(CC(C6)C4)C5)o3)c2)[nH]1)C1CC1 [Example 12.16, (S)-N-(Adamantan-1-Yl)-2-(3-(5-((1-Cyclopropylethyl)Carbamoyl)-4H-1,2,4-Triazol-3-Yl)Phenyl)Oxazole-5-Carboxamide]
17 | 420 | 161 | – | CCC(CC)NC(=O)c1cnc(-c2cccc(-c3nc(C(=O)NC(CC)CC)n(CCN4CCCCC4)n3)c2)o1 [Example 15.0, N-(Pentan-3-Yl)-2-(3-(5-(Pentan-3-Ylcarbamoyl)-1-(2-(Piperidin-1-Yl)Ethyl)-1H-1,2,4-Triazol-3-Yl)Phenyl)Oxazole-5-Carboxamide]
18 | 320 | 125 | – | CCC(CC)NC(=O)c1cnc(-c2cccc(-c3cc(C(=O)N[C@H](C)C4CC4)n(CCO)n3)c2)o1 [Example 5.1, (R)-2-(3-(5-((1-Cyclopropylethyl)Carbamoyl)-1-(2-Hydroxyethyl)-1H-Pyrazol-3-Yl)Phenyl)-N-(Pentan-3-Yl)Oxazole-5-Carboxamide]
19 | 20 | 134 | – | COC(=O)[C@@H](NC(=O)c1cnc(-c2cccc(-c3nnc(C(=O)NC(C4CC4)C4CC4)[nH]3)c2)o1)C(C)C [Example 12.9, (S)-Methyl 2-(2-(3-(5-((Dicyclopropylmethyl)Carbamoyl)-4H-1,2,4-Triazol-3-Yl)Phenyl)Oxazole-5-Carboxamido)-3-Methylbutanoate]
20 | 190 | 92 | – | COC(=O)[C@@H](NC(=O)c1cnc(-c2cccc(-c3nnc(C(=O)N[C@@H](C)C4CC4)[nH]3)c2)o1)C(C)(C)C [Example 12.10, (S)-Methyl 2-(2-(3-(5-(((S)-1-Cyclopropylethyl)Carbamoyl)-4H-1,2,4-Triazol-3-Yl)Phenyl)Oxazole-5-Carboxamido)-3,3-Dimethylbutanoate]
21 | 90 | 95 | – | CCOC(=O)CCCn1nc(-c2cccc(-c3ncc(C(=O)NC(CC)CC)o3)c2)nc1C(=O)NC(CC)CC [Example 15.8, Ethyl 4-(5-(Pentan-3-Ylcarbamoyl)-3-(3-(5-(Pentan-3-Ylcarbamoyl)Oxazol-2-Yl)Phenyl)-1H-1,2,4-Triazol-1-Yl)Butanoate]
22 | 310 | 74 | – | C[C@H](NC(=O)c1cnc(-c2cccc(-c3nnc(C(=O)N[C@H](C)C4CC4)[nH]3)c2)o1)C1CC1 [Example 13.0, N-((S)-1-Cyclopropylethyl)-2-(3-(5-(((R)-1-Cyclopropylethyl)Carbamoyl)-4H-1,2,4-Triazol-3-Yl)Phenyl)Oxazole-5-Carboxamide]
23 | 720 | 109 | – | CCC(CC)NC(=O)c1cnc(-c2cccc(-c3cc(C(=O)N[C@H](CC)[C@H]4CC[C@@H](C)O4)n[nH]3)c2)o1 [Example 3.53, 2-(3-(3-(((R)-1-((2R,5R)-5-Methyltetrahydrofuran-2-Yl)Propyl)Carbamoyl)-1 H-Pyrazol-5-Yl)Phenyl)-N-(Pentan-3-Yl)Oxazole-5-Carboxamide]
